How the values were obtained:
Assay in all cases: In vitro antibacterial activity, agar dilution MIC
[1] = test system: Escherichiacoli SS; format: cell-based, Escherichia coli; details: code RR, BHI agar, 35-37° C., 20-24 hours, unit assumed
Description: (§1) Each plate was inoculated with 1:100 (or 1:10 for slow-growing strains, such as Micrococcus and Streptococcus) dilutions of up to 32 different microorganisms, using a Steers replicator block. The inoculated plates were incubated at 35-37° C. for 20-24 hours. In addition, a control plate using BHI agar with no test compound was prepared and incubated at the beginning and end of each test. A plate containing erythromycin A was also prepared to provide test-to-test comparability. […] After incubation, each plate was visually inspected. The minimum inhibitory concentration (MIC) was defined as the lowest concentration of drug yielding no growth, a slight haze, or sparsely isolated colonies on the inoculum spot as compared to the growth control.

[2] = test system: Escherichiacoli JUHL; format: cell-based, Escherichia coli; details: code QQ, BHI agar, 35-37° C., 20-24 hours, unit assumed
Description: as §1

[3] = test system: Micrococcusluteus ATCC 4698; format: cell-based, Micrococcus luteus; details: code PP, BHI agar, 35-37° C., 20-24 hours, unit assumed
Description: as §1

[4] = test system: Streptococcus pyogenes EES61; format: cell-based; details: code LL, BHI agar, 35-37° C., 20-24 hours, unit assumed
Description: as §1

[5] = test system: Staphylococcus aureus ATCC 6538P; format: cell-based; details: code AA, BHI agar, 35-37° C., 20-24 hours, unit assumed
Description: as §1

[6] = test system: Candida albicans CCH 442; format: cell-based; details: code TT, BHI agar, 35-37° C., 20-24 hours, unit assumed
Description: as §1

[7] = test system: Staphylococcus aureus NCTC 10649M; format: cell-based; details: code EE, BHI agar, 35-37° C., 20-24 hours, unit assumed
Description: as §1

[8] = test system: Staphylococcus aureus A-5278; format: cell-based; details: code CC, BHI agar, 35-37° C., 20-24 hours, unit assumed
Description: as §1

[9] = test system: Streptococcus Pneumonia ATCC 6303; format: cell-based; details: code XX, BHI agar, 35-37° C., 20-24 hours, unit assumed
Description: as §1

[10] = test system: Nocardia Asteroides ATCC 99700; format: cell-based; details: code VV, BHI agar, 35-37° C., 20-24 hours, unit assumed
Description: as §1

[11] = test system: Staphylococcus aureus A-5177; format: cell-based; details: code BB, BHI agar, 35-37° C., 20-24 hours, unit assumed
Description: as §1

[12] = test system: Streptococcus Pneumonia GYR 1171; format: cell-based; details: code YY, BHI agar, 35-37° C., 20-24 hours
Description: as §1

[13] = test system: Streptococcus pyogenes 930; format: cell-based; details: code MM, BHI agar, 35-37° C., 20-24 hours, unit assumed
Description: as §1

[14] = test system: Streptococcus pyogenes PIU 2548; format: cell-based; details: code NN, BHI agar, 35-37° C., 20-24 hours, unit assumed
Description: as §1

[15] = test system: Streptococcus bovis A-5169; format: cell-based; details: code JJ, BHI agar, 35-37° C., 20-24 hours, unit assumed
Description: as §1

[16] = test system: Staphylococcus aureus 1775; format: cell-based; details: code GG, BHI agar, 35-37° C., 20-24 hours, unit assumed
Description: as §1

[17] = test system: Staphylococcus epidermidis 3519; format: cell-based; details: code HH, BHI agar, 35-37° C., 20-24 hours, unit assumed
Description: as §1

[18] = test system: Streptococcus agalactiae CMX 508; format: cell-based; details: code KK, BHI agar, 35-37° C., 20-24 hours, unit assumed
Description: as §1

[19] = test system: Streptococcus Pneumonia 5649; format: cell-based; details: code ZA, BHI agar, 35-37° C., 20-24 hours, unit assumed
Description: as §1

[20] = test system: Mycobacterium smegmatis ATCC 114; format: cell-based; details: code UU, BHI agar, 35-37° C., 20-24 hours, unit assumed
Description: as §1

[21] = test system: Haemophilislnfluenzae DILL AMP R; format: cell-based, Haemophilus influenzae; details: code WW, BHI agar, 35-37° C., 20-24 hours, unit assumed
Description: Representative compounds of the present invention were assayed in vitro for antibacterial activity as follows: twelve petri dishes containing successive aqueous dilutions of the test compound mixed with 10 mL of sterilized Brain Heart Infusion (BHI) agar (Difco 0418-01-5) were prepared. Each plate was inoculated with 1:100 (or 1:10 for slow-growing strains, such as Micrococcus and Streptococcus) dilutions of up to 32 different microorganisms, using a Steers replicator block. The inoculated plates were incubated at 35-37° C. for 20-24 hours. In addition, a control plate using BHI agar with no test compound was prepared and incubated at the beginning and end of each test.
A plate containing erythromycin A was also prepared to provide test-to-test comparability.
After incubation, each plate was visually inspected. The minimum inhibitory concentration (MIC) was defined as the lowest concentration of drug yielding no growth, a slight haze, or sparsely isolated colonies on the inoculum spot as compared to the growth control.

[22] = test system: Streptococcus Pneumonia 5979; format: cell-based; details: code ZZ, BHI agar, 35-37° C., 20-24 hours, unit assumed
Description: as §1, with “test.” for “test. A plate containing erythromycin A was also prepared to provide test-to-test comparability.”

| Compound | Antibacterial Activity (MIC's) [1] [µg/mL] | Antibacterial Activity (MIC's) [2] [µg/mL] | Antibacterial Activity (MIC's) [3] [µg/mL] | Antibacterial Activity (MIC's) [4] [µg/mL] | Antibacterial Activity (MIC's) [5] [µg/mL] | Antibacterial Activity (MIC's) [6] [µg/mL] | Antibacterial Activity (MIC's) [7] [µg/mL] | Antibacterial Activity (MIC's) [8] [µg/mL] | Antibacterial Activity (MIC's) [9] [µg/mL] | Antibacterial Activity (MIC's) [10] [µg/mL] | Antibacterial Activity (MIC's) [11] [µg/mL] | Antibacterial Activity (MIC's) ([12]; unit assumed) [µg/mL] | Antibacterial Activity (MIC's) [13] [µg/mL] | Antibacterial Activity (MIC's) [14] [µg/mL] | Antibacterial Activity (MIC's) [15] [µg/mL] | Antibacterial Activity (MIC's) [16] [µg/mL] | Antibacterial Activity (MIC's) [17] [µg/mL] | Antibacterial Activity (MIC's) [18] [µg/mL] | Antibacterial Activity (MIC's) [19] [µg/mL] | Antibacterial Activity (MIC's) [20] [µg/mL] | other results |
| --- | --- | --- | --- | --- | --- | --- | --- | --- | --- | --- | --- | --- | --- | --- | --- | --- | --- | --- | --- | --- | --- |
| CC[C@H]1OC(=O)[C@H](C)[C@@H](O[C@H]2C[C@@](C)(OC)[C@@H](O)[C@H](C)O2)[C@H](C)[C@@H](O[C@@H]2O[C@H](C)C[C@H](N(C)C)[C@H]2O)[C@](C)(O)C[C@@H](C)C(=O)[C@H](C)[C@@H](O)[C@]1(C)O [Ery. A, Erythromycin A, reference compound] | 0.78 | > 100 | 0.2 | 0.05 | 0.2 | > 100 | 0.39 | > 100 | 0.06 | 0.1 | 3.1 | 0.06 | > 100 | 6.2 | 0.02 | > 100 | 0.39 | 0.05 | 16 | 3.1 | Antibacterial Activity (MIC's) [21]: 4 µg/mL |
| CCC1OC(=O)CC(=O)C(C)C(OC2OC(C)CC(N(C)C)C2O)C(C)(OCC=Cc2cnc3ccccc3c2)CC(C)C(=O)C(C)C2NC(=O)OC12C (centres unmarked) [Example 2, Compound of Formula (XI), R^p is Hydrogen, Y is Hydrogen, R^2 is 3-quinolyl, R^3 is Hydrogen and R^4 is Hydrogen] | 0.39 | 100 | 0.2 | 0.01 | 0.39 | > 100 | 0.39 | > 100 | 0.03 | 0.2 | 0.39 | 0.03 | 50 | 0.2 | 0.02 | > 100 | 0.39 | 0.02 | 0.5 | 6.2 | Antibacterial Activity (MIC's) [22]: 8 µg/mL; Antibacterial Activity (MIC's) [21]: 8 µg/mL |
| C=CCC1C(=O)OC(CC)C2(C)OC(=O)NC2C(C)C(=O)C(C)CC(C)(OCC=Cc2cnc3ccccc3c2)C(OC2OC(C)CC(N(C)C)C2O)C(C)C1=O (centres unmarked) [Example 5, Compound of Formula (XI), R^p is Hydrogen, Y is Hydrogen, R^2 is 3-quinolyl R^3 is —CH2CH═CH2 and R^4 is hydrogen] | > 100 | > 100 | > 100 | 100 | > 100 | > 100 | > 100 | > 100 | 32 | > 100 | > 100 | 32 | > 100 | > 100 | 25 | > 100 | > 100 | 100 | > 128 | > 100 | Antibacterial Activity (MIC's) [22]: > 128 µg/mL |
| CCC1OC(=O)C(CS(=O)(=O)O)C(=O)C(C)C(OC2OC(C)CC(N(C)C)C2O)C(C)(OCC=Cc2cnc3ccccc3c2)CC(C)C(=O)C(C)C2NC(=O)OC12C (centres unmarked) [Example 6, Compound of Formula (XI), R^p is Hydrogen, Y is Hydrogen, R^2 is 3-quinolyl, R^3 is —CH2SO3H and R^4 is Hydrogen] | 3.1 | > 100 | 0.39 | 0.2 | 0.39 | > 100 | 0.78 | > 100 | 0.25 | 0.2 | 0.78 | 0.125 | 25 | 0.78 | 0.05 | > 100 | 0.78 | 0.2 | 2 | 12.5 | Antibacterial Activity (MIC's) [22]: 64 µg/mL; Antibacterial Activity (MIC's) [21]: 16 µg/mL |
| CCC1OC(=O)C(CC(C(=O)OC)C(=O)OC)C(=O)C(C)C(OC2OC(C)CC(N(C)C)C2O)C(C)(OCC=Cc2cnc3ccccc3c2)CC(C)C(=O)C(C)C2NC(=O)OC12C (centres unmarked) [Example 7, Compound of Formula (XI), R^p is Hydrogen Y is Hydrogen R^2 is 3-quinolyl, R^3 is —CH CH(CO2Me)2 and R^4 is Hydrogen] |  |  |  |  |  |  |  |  | 0.03 |  |  | 0.03 |  |  |  |  |  |  | 0.25 |  | Antibacterial Activity (MIC's) [22]: 64 µg/mL; Antibacterial Activity (MIC's) [21]: 8 µg/mL |
| Compound of Formula (I), R^p is Hydrogen, Y is Hydrogen, R^1 is —CH2CH(OH)CH(OH)—(3-quinolyl), R^3 is —CH2OH and R^4 is OH [Example 3] | 0.2 | 50 | 0.05 | 0.01 | 0.05 | > 100 | 0.1 | > 100 | 0.008 | 0.05 | 0.05 |  | 12.5 | 0.1 | 0.01 | > 100 | 0.05 | 0.01 | 0.25 | 3.1 | Antibacterial Activity (MIC's) [12]: ≦0.004; Antibacterial Activity (MIC's) [22]: 64 µg/mL; Antibacterial Activity (MIC's) [21]: 2 µg/mL |

Reference: patent US6569836B2, “6-O-alkyl-2-nor-2-substituted ketolide derivatives” (Abbott Laboratories, priority 1999, dated 2003)
